For three molecules, IC50 and pKa results are on record in ChEMBL document CHEMBL1122214, “omicron-Quinone formation in the biochemical oxidation of the antitumor drug N2-methyl-9-hydroxyellipticinium acetate” (J Med Chem, 1983).

Data set [1] has as its system L1210. In words: In vitro antitumor activity against murine leukemia L1210 after 48 hour. Format: functional. The settings on record: Mus musculus, L1210, 48 h; read-out: ID50 (the source's name).
Data set [2] in a line: Compound was evaluated for its pKa (weak acid) value. Format: physicochemical.

Molecules are shown by their SMILES.

One may read the pKa as the negative logarithm of the acid dissociation constant. A high value points to a group that holds its proton tightly.

Regarding `Cc1c2c(c(C)c3c[n+](C)ccc13)C1=CC(=O)C=CC1=N2`, the IC50 in data set [1] came to 0.05 µM.
`Cc1c2cc[n+](C)cc2c(C)c2c3c([nH]c12)C=CC(=O)C3=O` had a pKa in data set [2] of 5.1. In data set [1], the IC50 came out at 9.6 µM.
In the case of `COC1=CC(=O)C(=O)c2c1nc1c(C)c3ccn(C)cc3c(C)c21`, the IC50 in data set [1] stood at 5.8 µM.
